Data reported in US5538731A, “Cosmetic” (Mikimoto Pharmaceutical Co., Ltd., priority 1992, dated 1996).

Assay: Antioxydation test (linoleic acid, thiocyanate method)
Settings: 5 mg specimen
Protocol: In a 50 ml test tube with a screw cap, the following test solution was prepared. […]
This test solution was allowed to stand in a thermostatic bath at 50° C., while light was shut out. […]
12.125 ml of 75% ethanol and 0.125 ml of 30% ammonium thiocyanate were added to 0.125 ml of the test solution, and the solution was stirred and then allowed to stand for 3 minutes. Afterward, 0.125 ml of a 3.5% aqueous HCl solution including 0.02 N ferrous chloride was added thereto, and the solution was stirred and then allowed to stand for 3 minutes. Next, absorbance was measured at a wavelength of 500 nm. A cell length was 10 mm, and a control was prepared by replacing the test solution with water.

## Vitamin E
Linoleic acid test solution at 50° C., light shut out, water 0.050
  Absorbance at 500 nm After 3 days: 0.026
Linoleic acid test solution at 50° C., light shut out, water 0.103
  Absorbance at 500 nm After 5 days: 0.047
Linoleic acid test solution at 50° C., light shut out, water 0.262
  Absorbance at 500 nm After 7 days: 0.070
Linoleic acid test solution, before placing at 50° C., water 0.014
  Absorbance at 500 nm After 0 day: 0.015
